Source: patent US8450319B2, “Pyrrolopyridazinone compound” (Ube Industries, Ltd., priority 2006, dated 2013)
Structures can show the parent of a compound that is named as a salt.

`CCc1c(-c2ccc(OC(F)F)c(OCC3CC3)c2)[nH]c2cn[nH]c(=O)c12` (as salt: HCl) [Example 37, 2-(3-Cyclopropylmethoxy-4-difluoromethoxyphenyl)-3-ethyl-1,5-dihydropyrrolo[2,3-d]pyridazin-4-one HCl adduct] showed a melting point of 224 to 227 °C.

For `Cc1c(-c2ccc(OC(F)F)c3c2C=CC(C)(C)O3)[nH]c2cn[nH]c(=O)c12` (as salt: HCl) [Example 53, 2-(8-Difluoromethoxy-2,2-dimethyl-2H-chromen-5-yl)-3-methyl-1,5-dihydropyrrolo[2,3-d]pyridazin-4-one HCl adduct], the melting point was > 300 °C.

In the case of `O=c1[nH]ncc2[nH]c(-c3ccc(OC(F)F)c(OC4CC4)c3)cc12` [Example 1, 2-(3-Cyclopropoxy-4-difluoromethoxyphenyl)-1,5-dihydropyrrolo[2,3-d]pyridazin-4-one], the melting point is reported as 287 to 292 °C.

In the case of `O=c1[nH]ncc2[nH]c(-c3ccc(OC(F)F)c(OC4CC4)c3)c(Cl)c12` [Example 2, 3-Chloro-2-(3-cyclopropoxy-4-difluoromethoxyphenyl)-1,5-dihydropyrrolo[2,3-d]pyridazin-4-one], the melting point is reported as 281 to 283 °C.

`Cc1c(-c2ccc(OC(F)F)c(OC3CC3)c2)[nH]c2cn[nH]c(=O)c12` [Example 4, 2-(3-Cyclopropoxy-4-difluoromethoxyphenyl)-3-methyl-1,5-dihydropyrrolo[2,3-d]pyridazin-4-one] showed a melting point of 245 to 246 °C.

Work on `CCCc1c(-c2ccc(OC(F)F)c(OC3CC3)c2)[nH]c2cn[nH]c(=O)c12` [Example 6, 2-(3-Cyclopropoxy-4-difluoromethoxyphenyl)-3-propyl-1,5-dihydropyrrolo[2,3-d]pyridazin-4-one] yielded a melting point of 208 to 210 °C.

`CC(C)c1c(-c2ccc(OC(F)F)c(OC3CC3)c2)[nH]c2cn[nH]c(=O)c12` [Example 7, 2-(3-Cyclopropoxy-4-difluoromethoxyphenyl)-3-isopropyl-1,5-dihydropyrrolo[2,3-d]pyridazin-4-one] showed a melting point of 265 to 267 °C.

In the case of `O=c1[nH]ncc2[nH]c(-c3ccc(OC(F)F)c(OC4CC4)c3)c(CO)c12` [Example 10, 2-(3-Cyclopropoxy-4-difluoromethoxyphenyl)-3-hydroxymethyl-1,5-dihydropyrrolo[2,3-d]pyridazin-4-one], the melting point is reported as 190 to 191 °C.

`COCc1c(-c2ccc(OC(F)F)c(OC3CC3)c2)[nH]c2cn[nH]c(=O)c12` [Example 11, 2-(3-Cyclopropoxy-4-difluoromethoxyphenyl)-3-methoxymethyl-1,5-dihydropyrrolo[2,3-d]pyridazin-4-one] gave a melting point of 104 to 107 °C.

In the case of `O=c1[nH]ncc2[nH]c(-c3ccc(OC(F)F)c(OC4CC4)c3)c(-c3ccccc3)c12` [Example 17, 2-(3-Cyclopropoxy-4-difluoromethoxyphenyl)-3-phenyl-1,5-dihydropyrrolo[2,3-d]pyridazin-4-one], the melting point is reported as 138 to 143 °C.

In the case of `O=c1[nH]ncc2[nH]c(-c3ccc(OC(F)F)c(OC4CC4)c3)c(-c3cn[nH]c3)c12` [Example 18, 2-(3-Cyclopropoxy-4-difluoromethoxyphenyl)-3-(4-pyrazolyl)-1,5-dihydropyrrolo[2,3-d]pyridazin-4-one], the melting point is reported as 294 to 297 °C.

`O=c1[nH]ncc2[nH]c(-c3ccc(OC(F)F)c(OC4CC4)c3)c(CCc3ccccc3)c12` [Example 21, 2-(3-Cyclopropoxy-4-difluoromethoxyphenyl)-3-phenethyl-1,5-dihydropyrrolo[2,3-d]pyridazin-4-one] gave a melting point of 199 to 201 °C.

`O=c1[nH]ncc2[nH]c(-c3ccc(OC(F)F)c(OC4CC4)c3)c(Cc3cccc(F)c3)c12` [Example 23, 2-(3-Cyclopropoxy-4-difluoromethoxyphenyl)-3-(3-fluorobenzyl)-1,5-dihydropyrrolo[2,3-d]pyridazin-4-one] gave a melting point of 208 to 210 °C.

Molecule `O=c1[nH]ncc2[nH]c(-c3ccc(OC(F)F)c(OC4CC4)c3)c(Cc3ccc(F)cc3)c12` [Example 24, 2-(3-Cyclopropoxy-4-difluoromethoxyphenyl)-3-(4-fluorobenzyl)-1,5-dihydropyrrolo[2,3-d]pyridazin-4-one] has a melting point of 193 to 195 °C.

With `N#Cc1ccccc1Cc1c(-c2ccc(OC(F)F)c(OC3CC3)c2)[nH]c2cn[nH]c(=O)c12` [Example 25, 3-(2-Cyanobenzyl)-2-(3-cyclopropoxy-4-difluoromethoxyphenyl)-1,5-dihydropyrrolo[2,3-d]pyridazin-4-one] the melting point was > 300 °C.

With `N#Cc1cccc(Cc2c(-c3ccc(OC(F)F)c(OC4CC4)c3)[nH]c3cn[nH]c(=O)c23)c1` [Example 26, 3-(3-Cyanobenzyl)-2-(3-cyclopropoxy-4-difluoromethoxyphenyl)-1,5-dihydropyrrolo[2,3-d]pyridazin-4-one] the melting point was 130 to 135 °C.

In the case of `O=C(O)c1cccc(Cc2c(-c3ccc(OC(F)F)c(OC4CC4)c3)[nH]c3cn[nH]c(=O)c23)c1` [Example 27, 3-(3-Carboxybenzyl)-2-(3-cyclopropoxy-4-difluoromethoxyphenyl)-1,5-dihydropyrrolo[2,3-d]pyridazin-4-one], the melting point is reported as 155 to 163 °C.

`COc1cccc(Cc2c(-c3ccc(OC(F)F)c(OC4CC4)c3)[nH]c3cn[nH]c(=O)c23)n1` [Example 28, 2-(3-Cyclopropoxy-4-difluoromethoxyphenyl)-3-(6-methoxy-2-pyridylmethyl)-1,5-dihydropyrrolo[2,3-d]pyridazin-4-one] showed a melting point of 224 to 226 °C.

`O=c1[nH]ncc2[nH]c(-c3ccc(OC(F)F)c(OC4CCC4)c3)c(Cl)c12` [Example 32, 3-Chloro-2-(3-cyclobutoxy-4-difluoromethoxyphenyl)-1,5-dihydropyrrolo[2,3-d]pyridazin-4-one] showed a melting point of 273 to 275 °C.

In the case of `O=c1[nH]ncc2[nH]c(-c3ccc(OC(F)F)c(OCC4CC4)c3)cc12` [Example 35, 2-(3-Cyclopropylmethoxy-4-difluoromethoxyphenyl)-1,5-dihydropyrrolo[2,3-d]pyridazin-4-one], the melting point is reported as 294 to 295 °C.

In the case of `CC(C)Oc1cc(-c2cc3c(=O)[nH]ncc3[nH]2)ccc1OC(F)F` [Example 39, 2-(4-Difluoromethoxy-3-isopropoxyphenyl)-1,5-dihydropyrrolo[2,3-d]pyridazin-4-one], the melting point is reported as 269 to 273 °C.

`CC(C)Oc1cc(-c2[nH]c3cn[nH]c(=O)c3c2Cl)ccc1OC(F)F` [Example 40, 3-Chloro-2-(4-difluoromethoxy-3-isopropoxyphenyl)-1,5-dihydropyrrolo[2,3-d]pyridazin-4-one] showed a melting point of 248 to 262 °C.

Work on `COc1ccc(-c2[nH]c3cn[nH]c(=O)c3c2Cl)cc1OC1CC1` [Example 42, 3-Chloro-2-(3-cyclopropoxy-4-methoxyphenyl)-1,5-dihydropyrrolo[2,3-d]pyridazin-4-one] yielded a melting point of 293 to 294 °C.

In the case of `COc1ccc(-c2[nH]c3cn[nH]c(=O)c3c2Br)cc1OC1CC1` [Example 43, 3-Bromo-2-(3-cyclopropoxy-4-methoxyphenyl)-1,5-dihydropyrrolo[2,3-d]pyridazin-4-one], the melting point is reported as 293 to 296 °C (dec.).

With `COc1ccc(-c2[nH]c3cn[nH]c(=O)c3c2Cl)cc1OC1CCC1` [Example 45, 3-Chloro-2-(3-cyclobutoxy-4-methoxyphenyl)-1,5-dihydropyrrolo[2,3-d]pyridazin-4-one] the melting point was 285 to 287 °C.

For `COc1ccc(-c2cc3c(=O)[nH]ncc3[nH]2)cc1OC1CCCC1` [Example 46, 2-(3-Cyclopentoxy-4-methoxyphenyl)-1,5-dihydropyrrolo[2,3-d]pyridazin-4-one], the melting point was 290 °C (dec.).

In the case of `COc1ccc(-c2[nH]c3cn[nH]c(=O)c3c2Cl)cc1OCC1CC1` [Example 47, 3-Chloro-2-(3-cyclopropylmethoxy-4-methoxyphenyl)-1,5-dihydropyrrolo[2,3-d]pyridazin-4-one], the melting point is reported as 256 to 258 °C.

For `COc1ccc(-c2[nH]c3cn[nH]c(=O)c3c2Cl)cc1OC(C)C` [Example 48, 3-Chloro-2-(3-isopropoxy-4-methoxyphenyl)-1,5-dihydropyrrolo[2,3-d]pyridazin-4-one], the melting point was 291 to 299 °C.

`O=c1[nH]ncc2[nH]c(-c3ccc(OC(F)F)c(OC4CC4)c3)c(COCC3CC3)c12` [Example 59, 2-(3-Cyclopropoxy-4-difluoromethoxyphenyl)-3-cyclopropylmethoxymethyl-1,5-dihydropyrrolo[2,3-d]pyridazin-4-one] showed a melting point of 170 to 172 °C.

`CCC(C)OCc1c(-c2ccc(OC(F)F)c(OC3CC3)c2)[nH]c2cn[nH]c(=O)c12` (stereo not drawn) [Example 63, 3-(sec-Butoxymethyl)-2-(3-cyclopropoxy-4-difluoromethoxyphenyl)-1,5-dihydropyrrolo[2,3-d]pyridazin-4-one] gave a melting point of 103 to 106 °C.

With `CC(C)(C)OCc1c(-c2ccc(OC(F)F)c(OC3CC3)c2)[nH]c2cn[nH]c(=O)c12` [Example 64, 3-(tert-Butoxymethyl)-2-(3-cyclopropoxy-4-difluoromethoxyphenyl)-1,5-dihydropyrrolo[2,3-d]pyridazin-4-one] the melting point was > 300 °C.

With `CCC(CC)OCc1c(-c2ccc(OC(F)F)c(OC3CC3)c2)[nH]c2cn[nH]c(=O)c12` [Example 65, 2-(3-Cyclopropoxy-4-difluoromethoxyphenyl)-3-(1-ethylpropoxymethyl)-1,5-dihydropyrrolo[2,3-d]pyridazin-4-one] the melting point was 133 to 162 °C.

Work on `CCCCCc1c(-c2ccc(OC(F)F)c(OC3CC3)c2)[nH]c2cn[nH]c(=O)c12` [Example 68, 2-(3-Cyclopropoxy-4-difluoromethoxyphenyl)-3-pentyl-1,5-dihydropyrrolo[2,3-d]pyridazin-4-one] yielded a melting point of 191 to 193 °C.

Work on `O=c1[nH]ncc2[nH]c(-c3ccc(OC(F)F)c(OC4CC4)c3)c(CCC3CC3)c12` [Example 70, 2-(3-cyclopropoxy-4-difluoromethoxyphenyl)-3-(2-cyclopropylethyl)-1,5-dihydropyrrolo[2,3-d]pyridazin-4-one] yielded a melting point of 194 to 197 °C.

`C#CCc1c(-c2ccc(OC(F)F)c(OC3CC3)c2)[nH]c2cn[nH]c(=O)c12` [Example 71, 2-(3-Cyclopropoxy-4-difluoromethoxyphenyl)-3-(2-propynyl)-1,5-dihydropyrrolo[2,3-d]pyridazin-4-one] gave a melting point of 245 to 246 °C.

Molecule `C=CCc1c(-c2ccc(OC(F)F)c(OC3CC3)c2)[nH]c2cn[nH]c(=O)c12` [Example 74, 2-(3-Cyclopropoxy-4-difluoromethoxyphenyl)-3-(2-propenyl)-1,5-dihydropyrrolo[2,3-d]pyridazin-4-one] has a melting point of 176 to 179 °C.
